Test systems include HCT-116 colon; EKVX NSCLC; HS 578T breast; SF-539 CNS; HCT-15 colon; MCF7 breast; HL-60(TB) leukemia; M14 melanoma; T-47D breast; SNB-75 CNS.
Holding throughout (experiment): growth of human tumour cells (NCI), 48 h

For twelve molecules, GI50 and TGI results are on record in PubChem BioAssay (NCI).

Several values for one entry are separate records, joined by “and”; a condition that tells them apart may be missing. Equal entries are not always repeated.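 Dose response: 5 concentrations. Exposure: 48 h. Format: 96-well plates. Endpoint: linear interpolation; highest concentration if not reached. At the GI50, growth is halved. At the TGI there is no net growth.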

As for `C[As](C)Sc1ccnc(S[As](C)C)n1`, the GI50 in the experiment with HCT-116 colon was 2.13 µM; in the experiment with EKVX NSCLC it was 11.2 µM; in the experiment on HS 578T breast it was 1.99 µM; with SF-539 CNS, 2.77 µM; with HCT-15 colon it was 0.928 µM; in the experiment with MCF7 breast, 3.23 µM. The GI50 was 1.13 µM in the experiment with HL-60(TB) leukemia, 3.94 µM in the experiment on M14 melanoma, 22.9 µM with T-47D breast and 12.7 µM with SNB-75 CNS. Besides, the TGI in the experiment on HCT-116 colon is over 34.8 µM; with EKVX NSCLC, 35.8 µM; in the experiment on HS 578T breast it was 17.7 µM; in the experiment on SF-539 CNS, over 34.8 µM; in the experiment on HCT-15 colon, 14.7 µM; in the experiment with MCF7 breast, over 35.1 µM. In addition, the TGI with M14 melanoma is over 44.9 µM; in the experiment on T-47D breast it was over 100 µM; in the experiment on SNB-75 CNS it was over 100 µM.
As to `CC(C)c1ccc2c(N=Nc3ccc(S(N)(=O)=O)cc3)c(O)[nH]c2c1`, the GI50 with HCT-116 colon was 11 µM; in the experiment on EKVX NSCLC, over 16.6 µM; in the experiment with HS 578T breast it was 8.07 µM; in the experiment on SF-539 CNS, 5.56 µM; in the experiment with HCT-15 colon, over 22.6 µM; with MCF7 breast, over 14.7 µM. The GI50 with HL-60(TB) leukemia was over 25 µM; in the experiment with M14 melanoma, over 25 µM; with T-47D breast it was over 15.3 µM; in the experiment on SNB-75 CNS it was 4.72 µM. Moreover, the TGI in the experiment with HCT-116 colon, in the experiment on EKVX NSCLC, with HS 578T breast, with SF-539 CNS, in the experiment with HCT-15 colon and in the experiment with MCF7 breast was over 25 µM each time. The TGI was over 25 µM with HL-60(TB) leukemia, over 25 µM with M14 melanoma, over 25 µM with T-47D breast and 10.3 µM with SNB-75 CNS.
In the case of `Nc1ccccc1/C=N\Nc1ccccc1`, the GI50 with HCT-116 colon was over 100 µM; in the experiment with EKVX NSCLC, 77.1 µM; with HS 578T breast, over 100 µM; in the experiment with SF-539 CNS, 1.27 µM; in the experiment on HCT-15 colon, 5.13 µM; in the experiment with MCF7 breast, 8.92 µM. The GI50 in the experiment on HL-60(TB) leukemia is 1.78 µM; in the experiment with M14 melanoma, 4.05 µM; in the experiment with T-47D breast, 5.04 µM; with SNB-75 CNS, over 100 µM. For the same molecule, the TGI with HCT-116 colon was over 100 µM; in the experiment on EKVX NSCLC it was over 100 µM; with HS 578T breast it was over 100 µM; in the experiment with SF-539 CNS, 7.04 µM; in the experiment with HCT-15 colon, over 100 µM; with MCF7 breast, over 100 µM. The TGI is 29.3 µM in the experiment on HL-60(TB) leukemia, over 100 µM in the experiment with M14 melanoma, over 100 µM in the experiment with T-47D breast and over 100 µM in the experiment with SNB-75 CNS.
For the molecule `C(=N/Nc1ncnc2nc[nH]c12)/c1ccccn1`, the GI50 with HCT-116 colon is 0.46 µM; in the experiment with EKVX NSCLC it was 0.386 µM; with HS 578T breast, 12.7 µM; in the experiment with SF-539 CNS it was 1.3 µM; in the experiment with HCT-15 colon it was 1.11 µM; in the experiment with MCF7 breast it was 0.444 µM. For the same molecule, the GI50 with HL-60(TB) leukemia was 1.01 µM; in the experiment on M14 melanoma it was 0.766 µM; with T-47D breast it was 0.308 µM; in the experiment on SNB-75 CNS it was 1.73 µM. Also, the TGI in the experiment on HCT-116 colon was over 100 µM; in the experiment with EKVX NSCLC, 40.5 µM; in the experiment with HS 578T breast, over 100 µM; in the experiment with SF-539 CNS it was 5.72 µM; with HCT-15 colon, over 100 µM; in the experiment with MCF7 breast, over 100 µM. Also, the TGI was 7.07 µM in the experiment with HL-60(TB) leukemia, 3.63 µM with M14 melanoma, over 100 µM in the experiment on T-47D breast and 35.1 µM with SNB-75 CNS.
As to `CC(=O)Oc1ccc2ccc(=O)oc2c1OC(C)=O`, the TGI in the experiment on HCT-116 colon, with EKVX NSCLC, in the experiment with HS 578T breast, in the experiment on SF-539 CNS, in the experiment on HCT-15 colon and in the experiment on MCF7 breast was over 100 µM each time. Besides, the TGI in the experiment with HL-60(TB) leukemia is 38.1 µM; in the experiment with M14 melanoma, over 100 µM; with T-47D breast, over 100 µM; in the experiment with SNB-75 CNS it was over 100 µM.
Consider `CCOC(=O)c1ccc2c(c1)[n+](=O)c(C(=O)c1ccc3ccccc3c1)c(C(F)(F)F)n2[O-]`, for which the GI50 with HCT-116 colon was 0.373 µM; with EKVX NSCLC, 1.56 µM; in the experiment with HS 578T breast, 1.57 µM; with SF-539 CNS, 1.56 µM; with HCT-15 colon, 1.49 µM; in the experiment on MCF7 breast, 0.901 µM. In addition, the GI50 with HL-60(TB) leukemia was 0.98 µM; in the experiment with M14 melanoma, 1.44 µM; with T-47D breast, 0.86 µM; in the experiment with SNB-75 CNS, 1.13 µM. The TGI with HCT-116 colon amounted to 1.46 µM; with EKVX NSCLC it was 3.14 µM; in the experiment with HS 578T breast it was 3.62 µM; in the experiment with SF-539 CNS it was 2.9 µM; in the experiment with HCT-15 colon, 3.3 µM; with MCF7 breast, 2.42 µM. The TGI stood at 2.82 µM in the experiment with HL-60(TB) leukemia, 2.74 µM in the experiment with M14 melanoma, 2.32 µM in the experiment on T-47D breast and 2.34 µM in the experiment with SNB-75 CNS.
Turning to `CCc1ccc(CCC(=O)Nc2ncc(Cc3cc(Cl)ccc3Cl)s2)o1`, the GI50 is 0.988 µM in the experiment with HCT-116 colon; 2.32 µM with EKVX NSCLC; 1.29 µM in the experiment with HS 578T breast; 1.26 µM with SF-539 CNS; 0.508 µM in the experiment on HCT-15 colon; 0.399 µM with MCF7 breast. Besides, the GI50 is 0.887 µM in the experiment with HL-60(TB) leukemia, 0.721 µM in the experiment on M14 melanoma, 1.86 µM in the experiment with T-47D breast and 0.412 µM in the experiment on SNB-75 CNS. Moreover, the TGI in the experiment on HCT-116 colon was 9.1 µM; in the experiment with EKVX NSCLC it was over 50 µM; in the experiment on HS 578T breast, 5.96 µM; with SF-539 CNS, 4.1 µM; in the experiment on HCT-15 colon, over 50 µM; with MCF7 breast, over 50 µM. For the same molecule, the TGI is 2.11 µM in the experiment on HL-60(TB) leukemia, over 50 µM in the experiment on M14 melanoma, over 50 µM in the experiment with T-47D breast and 2.4 µM in the experiment on SNB-75 CNS.
Regarding `CCOC(=O)C1=C(N)Oc2c(sc3c(C)cccc23)C1c1ccc(Cl)cc1` (stereo unspecified), the GI50 in the experiment on HCT-116 colon was 2.83 µM; in the experiment with EKVX NSCLC, 3.75 µM; with HS 578T breast it was 1.78 µM; in the experiment on SF-539 CNS it was 1.8 µM; in the experiment on HCT-15 colon it was 2.02 µM; with MCF7 breast, 0.655 µM. For the same molecule, the GI50 in the experiment with HL-60(TB) leukemia was 2.56 µM; in the experiment with M14 melanoma, 2.46 µM; with T-47D breast it was 2.79 µM; in the experiment with SNB-75 CNS, 0.643 µM. In addition, the TGI in the experiment with HCT-116 colon turned out to be 12.1 µM; with EKVX NSCLC, 17.1 µM; in the experiment on HS 578T breast, 6.95 µM; in the experiment on SF-539 CNS, 5.57 µM; in the experiment with HCT-15 colon, 10.6 µM; in the experiment with MCF7 breast, 10.9 µM. Further, the TGI in the experiment with HL-60(TB) leukemia turned out to be 7.81 µM; with M14 melanoma, 11.2 µM; with T-47D breast it was 18.8 µM; in the experiment on SNB-75 CNS, 7.79 µM.
As to `COc1cc(C(=O)NC2CCN(C)CC2)ccc1Nc1ncc2c(n1)N(C1CCCC1)CC(F)(F)C(=O)N2C`, the GI50 with HCT-116 colon is under 0.0118 µM; in the experiment with EKVX NSCLC, 0.245 µM; with HS 578T breast, 0.0585 µM; in the experiment with SF-539 CNS it was 0.0215 µM; in the experiment with HCT-15 colon, 0.468 µM; in the experiment on MCF7 breast, under 0.01 µM. Also, the GI50 is under 0.01 µM with HL-60(TB) leukemia, under 0.0148 µM in the experiment with M14 melanoma, 0.177 µM in the experiment with T-47D breast and 0.0198 µM with SNB-75 CNS. Moreover, the TGI with HCT-116 colon turned out to be 11.2 µM; in the experiment with EKVX NSCLC it was 17.5 µM; in the experiment on HS 578T breast, 1.53 µM; in the experiment on SF-539 CNS it was 5.13 µM; in the experiment with HCT-15 colon, 13.7 µM; in the experiment on MCF7 breast, 10.5 µM. The TGI in the experiment with HL-60(TB) leukemia came to 0.0223 µM; in the experiment with M14 melanoma, 5.09 µM; in the experiment on T-47D breast, 12.6 µM; in the experiment with SNB-75 CNS it was 16.1 µM.
For `NC(=O)c1nnn(Cc2cc(Cl)c(C(=O)c3ccc(Cl)cc3)c(Cl)c2)c1N`, the GI50 in the experiment on HCT-116 colon, in the experiment with EKVX NSCLC, in the experiment on SF-539 CNS, in the experiment on HCT-15 colon, in the experiment with HL-60(TB) leukemia and with M14 melanoma was over 9.09 µM in each case. Besides, in the experiment with SNB-75 CNS, the GI50 was over 9.09 µM. The TGI in the experiment with HCT-116 colon is > 9.09 µM and 35.2 µM; in the experiment with EKVX NSCLC it was > 9.09 µM and 37.5 µM; in the experiment with HS 578T breast it was over 64.3 µM; in the experiment on SF-539 CNS it was > 9.09 µM and 46.5 µM; with HCT-15 colon, > 9.09 µM and 39.7 µM; in the experiment on MCF7 breast, 32.9 µM. In addition, the TGI with HL-60(TB) leukemia is over 100 µM; in the experiment on M14 melanoma, > 9.09 µM and 36.7 µM; with T-47D breast, over 51.6 µM; in the experiment with SNB-75 CNS, > 9.09 µM and 48 µM.
Regarding `CC1(C)CC(=O)C(C(c2cccc(O)c2O)C2C(=O)CC(C)(C)CC2=O)C(=O)C1`, the TGI with HCT-116 colon, with EKVX NSCLC, with HS 578T breast, with SF-539 CNS, in the experiment with HCT-15 colon and with MCF7 breast was over 100 µM in each case. The TGI in the experiment on HL-60(TB) leukemia, in the experiment on M14 melanoma, in the experiment on T-47D breast and with SNB-75 CNS was over 100 µM in each case.
For the molecule `O=C(O)CNC(=O)c1ccccc1O`, the TGI with HCT-116 colon, in the experiment with EKVX NSCLC, with HS 578T breast, in the experiment with SF-539 CNS, in the experiment with HCT-15 colon and in the experiment with MCF7 breast was over 100 µM in each case. Further, the TGI with HL-60(TB) leukemia, in the experiment with M14 melanoma, in the experiment on T-47D breast and with SNB-75 CNS was over 100 µM in each case.
